Laboratory results: patent US11420975B2, “Substituted imidazo[1,5-a]pyrazines as Bruton's tyrosine kinase inhibitors” (TRANSTHERA SCIENCES (NANJING), INC., priority 2018, dated 2022)
pIC50: −log10 of the molar value.

Tests used:
[1] = tested on: OCI-LY10; experiment: In vitro tumor cell proliferation inhibition, OCI-LY10 (CellTiter-Glo); format: cell-based; details: Homo sapiens; OCI-LY10 cells, 72 h
Protocol: (1) Method • The tumor cell line (TMD-8/OCY-LY10) was suspended in RPMI1640+FBS10% and cultured in an incubator (37° C., 5% CO2). Cells were passaged periodically, and cells at logarithmic growth phase were collected for plating. • Cell staining was performed with trypan blue and viable cells were counted. • Cell concentration was adjusted to 7000 cells/well with medium. • 90 μL of cell suspension was added to a 96-well plate and cell-free culture medium was added to the blank control wells. • Cells in the 96-well plate were incubated overnight in an incubator (37° C., 5% CO2, 100% relative humidity). • Preparation of 400× compound storage plates: test compounds and reference drug were each dissolved in DMSO and 3× diluted from the highest concentration (400 μM) to the lowest concentration (0.61 μM). • Preparation of 10× compound working solutions: 78 μL of cell culture medium was added to a V-bottom 96-well plate, and 2 μL of the compound was pipetted from the 400× compound storage plate into the 96-well plate. Vehicle control wells and blank control wells were added with 2 μL of DMSO. […] Inhibition rates of compounds at different concentrations were calculated in Excel, followed by plotting the inhibition curves and calculating IC50 values with GraphPad Prism.

[2] = tested on: TMD-8 xenograft tumor; experiment: TMD-8 xenograft tumor model; format: in vivo; details: for TGI: bid
Protocol: (§1) CB17/SCID female mice with serious immune deficiency were purchased from Beijing Vital River Laboratory Animal Technology Co., Ltd. and bred in SPF animal houses. Human TMD-8 cells (Shanghai Junrui-UFBN1682) were cultured in an RPMI 1640 culture medium containing 10% fetal bovine serum, 100 U/mL penicillin and 100 μg/mL streptomycin through monolayer culture in vitro in an incubator (37° C., 5% C02). Routine treatment was performed twice a week for passaging. At a cell saturation of 80%-90% and a required number, the cells were harvested and counted. 0.2 mL (1×10^7) of TMD-8 cells (together with matrigel at a volume ratio of 1:1) were subcutaneously inoculated into the right back of each mouse, and the tumor size could be measured about one week after inoculation. Tumor size was measured using a vernier caliper and tumor volume was calculated using the following formula: tumor volume=(length×width^2)/2.

[3] = biological target: T1, BTK(wt) (Homo sapiens (Human), UniProt Q06187); experiment: In vitro inhibitory activity against BTK(wt) enzyme (33P-ATP filter binding); format: biochemical; details: class symbols
T1 sequence (Q06187 whole entry): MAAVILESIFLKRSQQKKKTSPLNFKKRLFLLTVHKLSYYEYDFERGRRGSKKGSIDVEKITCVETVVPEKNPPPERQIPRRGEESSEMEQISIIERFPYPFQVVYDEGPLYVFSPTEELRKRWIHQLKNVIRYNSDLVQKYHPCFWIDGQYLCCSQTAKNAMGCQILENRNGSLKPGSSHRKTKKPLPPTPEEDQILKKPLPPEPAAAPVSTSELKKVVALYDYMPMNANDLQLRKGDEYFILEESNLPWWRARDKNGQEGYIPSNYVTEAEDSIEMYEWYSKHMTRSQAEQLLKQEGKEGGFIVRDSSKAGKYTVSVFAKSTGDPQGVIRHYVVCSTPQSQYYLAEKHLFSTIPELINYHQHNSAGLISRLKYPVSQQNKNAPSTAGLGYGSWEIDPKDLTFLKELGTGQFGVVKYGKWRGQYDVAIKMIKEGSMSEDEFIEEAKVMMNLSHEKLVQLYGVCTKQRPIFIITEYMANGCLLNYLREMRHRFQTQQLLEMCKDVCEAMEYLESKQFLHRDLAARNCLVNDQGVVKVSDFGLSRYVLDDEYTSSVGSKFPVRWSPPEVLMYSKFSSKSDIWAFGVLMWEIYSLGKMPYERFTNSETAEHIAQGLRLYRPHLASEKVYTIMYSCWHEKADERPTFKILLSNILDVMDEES
Protocol: The substrate solution was prepared by adding the substrate poly(Glu, Tyr) sodium salt (Sigma Aldrich, St. Louis, Mo.) to the substrate reaction buffer (20 mM Hepes (pH 7.5), 10 mM MgCl2, 1 mM EGTA, 0.02% Brij35, 0.02 mg/mL BSA, 0.1 mM Na3VO4, 2 mM DTT and 1% DMSO) (final substrate concentration in the reaction solution was 0.2 μM). Test compound was formulated into stock solutions at 10 mM concentration with 100% DMSO, and 3-fold serial dilution for 10 doses was performed in a 384-well cyclic olefin copolymer LDV microplate. […] Test compound in 100% DMSO was then added to the kinase reaction mixture by acoustic liquid transfer technology (Echo 550; nanoliter range) (Labcyte Inc, Sunnyvale, Calif.) and incubated for 20 min at room temperature. 33P-ATP (specific activity 10 μCi/μL) was added to the reaction mixture to initiate the reaction, followed by incubation at room temperature for 2 h. A small portion of the reaction mixture was dropped onto P-81 ion exchange filter paper (Whatman). After washing the unbound phosphate from the filter paper with 0.75% phosphate buffer (three times) and drying, the remaining radioactivity on the filter paper was measured. The kinase activity was expressed as the percentage of the remaining kinase activity in the test sample to the kinase activity in the vehicle (dimethyl sulfoxide) blank control. IC50 values were calculated by curve fitting the data obtained using Prism (GraphPad Software).

[4] = tested on: OCI-LY10 xenograft tumor; experiment: OCI-LY10 xenograft tumor model; format: in vivo; details: for TGI: bid
Protocol: as §1, with “OCI-LY10” for “TMD-8”, “Junrui-UFBN0102)” for “Junrui-UFBN1682)”

[5] = biological target: T1, BTK(wt); experiment: pBTK inhibition in HEK293 cells transfected with BTK(wt) (ELISA); format: cell-based; details: 2 h
Protocol: For positive (high signal) controls, cells were treated with 0.5% DMSO alone. […] The absorbance was read at 450 nm. • Based on the absorbance readings of the positive and negative control values, the % inhibition value was calculated according to the following formula: (% INH=((positive control−sample)/(positive control−negative control))×100. • The Z′ value was calculated based on the following formula: 1−((3×standard deviation of positive+3×standard deviation of negative)/(mean positive−mean negative)). • The […] was plotted using GraphPad Prism. • IC50 values were determined after sigmoidal dose-response curve fitting.

`Nc1nccn2c(C34CCC(NC(=O)CN5CCOCC5)(CC3)C4)nc(-c3ccc(C(=O)Nc4cc(C(F)(F)F)ccn4)cc3)c12` [Compound A-10-10, 4-(8-amino-3-(4-(2-morpholinoacetamido)bicyclo[2.2.1]heptan-1-yl)imidazo[1,5-a]pyrazin-1-yl)-N-(4-(trifluoromethyl)pyridin-2-yl)benzamide] was tested, and the IC50 [1] was 10.3 nM, the “xenograft tumors disappeared (fraction)” value ([2]; 50 mg/kg group, after 27 days of administration) was 5/8 and the “tolerance of tumor-bearing mice” value ([2]; all dosages) was “good tolerance”. The “effect on body weight of tumor-bearing mice” value ([2]; all treatment groups) was “no significant weight loss”, the TGI ([2]; intragastric 25 mg/kg) was 94% and the TGI ([2]; intragastric 50 mg/kg) was 104%. The pIC50 [3] was 8.00 to 9.00, the xenograft tumors disappearance ([4]; 25 mg/kg group, after 28 days of administration) was “disappeared completely” and the xenograft tumors disappearance ([4]; 50 mg/kg group, after 21 days of administration) was “completely disappeared”. For the same compound, the “tolerance of tumor-bearing mice” value ([4]; all dosages) was “good tolerance”, the “effect on body weight of tumor-bearing mice” value ([4]; all treatment groups) was “no significant weight loss” and the TGI ([4]; intragastric 25 mg/kg) was 110%. The TGI ([4]; intragastric 50 mg/kg) was 110% and the pIC50 [5] was 7.11.
